{"source": "patent US20250255990A1", "about": "“FLUORESCENT NANODIAMOND COATED WITH POROUS POLYDOPAMINE, AND USE THEREOF” (KOREA RESEARCH INSTITUTE OF STANDARDS AND SCIENCE, priority 2022, published 2025)", "test_system": "HeLa cells", "test": "Annexin V-FITC / PI flow cytometry (FACS)", "assay_type": "cell-based", "conditions": "50 μg/mL, 16 hours", "procedure": "In addition, analysis was performed using FACS (BD Accuri™, BD Biosciences) to evaluate the biocompatibility of FND@mPDA-PEG. Specifically, HeLa cells were incubated with 50 μg/mL of FND, FND@mPDA-PEG, or doxorubicin for the control experiment at 37° C. for 16 hours and washed with PBS. Cells (1×10^5 cells/sample) were suspended in 100 μL of 1× binding buffer and stained with 5 μL of Annexin V-FITC and 5 μL of PI. The cells were gently vortexed and incubated at room temperature for 15 minutes in the dark. 400 μL of 1× binding buffer was added to each tube and then analyzed by flow cytometry. 10,000 or more events were collected and the data were analyzed using FlowJo™ version 10.7 software."}
{"smiles": "COc1cccc2c1C(=O)c1c(O)c3c(c(O)c1C2=O)C[C@@](O)(C(=O)CO)C[C@@H]3O[C@H]1C[C@H](N)[C@H](O)[C@H](C)O1", "note": "[doxorubicin]", "values": [{"measurement": "apoptosis / cell survival", "result": "induced apoptosis of HeLa cells"}]}
